Experimental findings from US20230233531A1, “USE OF NON-STEROIDAL ANTI-INFLAMMATORY COMPOUNDS FOR TREATMENT OF INFLAMMATION” (University of Houston System, priority 2022, published 2023) are described below.

Entries after “also recorded” stand apart in the source; their conditions may differ.

For assay [1], the system named is carrageenan-induced paw inflammation. The experiment in a line: Carrageenan-induced paw inflammation/edema in CD-1 mice. The class given is in vivo. To be noted: for dose-dependent anti-inflammatory activity, paw thickness: 10 mg/kg vs 50 mg/kg; for dose-dependent anti-inflammatory activity, paw edema volume: 10 mg/kg vs 50 mg/kg, 2, 4 and 6 h; for paw thickness increase / paw volume increase: 50 mg/kg intramuscular, vs control group; for paw volume increase: 50 mg/kg. As to the method: (§1) Animals. The adult CD-1 mice (18-20 g) and BABL-c (18-20 g) were purchase from Envigo Plus vendor (USA) and used in this study. The mice were hosted under standard condition (23±2° C.; 12 h/12 h light/dark cycle; 50% humidity). The protocol was approved by Institutional Animal Care and Use Committee (IACUC). And all procedures were conducted according to IACUC. After all the experiments, the animals were euthanized with CO2 under the procedure of IACUC. Injections of compounds. The synthesized compounds to be tested were injected 10 mins before carrageenan injection. All the compounds were freshly prepared. All the compounds were dissolved in PBS and totally dissolved after ultrasonic. The compounds were injected with 26-G sterile needle via intramuscular injection. After immobilizing the mice, the hind limb was immobilized with the little finger and the then, the injection site was disinfected with 70% alcohol, and the needle was inserted into the root of the hindlimb at an angle of 45 degrees. The needle plug was withdrawn to make sure there was no injection into the blood vessel. If there was no blood return, the compounds were injected slowly. The mice were place back to their cages for 10 mins before the next step. Procedures for establishing of paw inflammation. The procedure of establishing inflammation mice model and the procedure of measurement of paw edema were describe as follow: 1% lambda-carrageenan was freshly prepared before injection. Carrageenan powder was first dissolved in cold PBS and vortexed for 5 times. Then the mixture was placed in 50° C. water for 5 mins until all the milky white matrix dissolved completely. […]*3⁄8 (0.45 mm*10 mm) sterile needle was used for injection. Carrageenan was subcutaneous injected slowly into the middle of the mice left hind paw. The time of injection Carrageenan was count as the start time point (0 h) and the paw swelling size was recorded as paw thickness and paw edema volume. Establishing of Carrageenan-induced Inflammatory Paw Edema Mice Model. […] The carrageenan-induced paw edema inflammation is a well-defined model of acute inflammation. It is widely and commonly used for evaluating the effectiveness of inhibitors of prostaglandin synthesis. Carrageenan is a complex of polysaccharides that functions in stimulating the expressions of COX-2 and mPGES-1 to release the proinflammatory mediator, PGE2, and its downstream factors, such as bradykinin, histamine, tachykinins, reactive oxygen, and nitrogen species. In this study, to induce acute inflammation, a single dose of 25 μl of 1% solution of λ-carrageenan was injected subcutaneously into the pad area of the hairless skin on the underside of the left hind paw (FIG. 1A). The injection was performed using a 26-gauge needle targeting the center of the plantar region. The administration of leading compounds and the positive control group, Celebrex, and the negative control saline occurred 10 minutes prior to the λ-carrageenan […] injection. To obtain the anti-inflammatory data, the animal condition was monitored hourly and paw-edema volume and thickness were measured hourly from 0 h to 6 h and again at 24 h, the injection of λ-carrageenan was counted as 0 h (FIG. 1B). After 24 h, local blood was collected from the hind paw of the mice for the next step assay to determine the PGE2 and PGI2 levels. Tissue samples, including the stomach and kidney, were collected after euthanization. The BABL-c mice were arranged into three groups: A. Control (Ctl) group: 50 μl saline; B. 2Me group: 50 mg/kg, 50 ul; C. 3-F group: 50 mg/kg, 50 ul. the CD-1 mice were arranged into 6 groups: A. Control (Ctl) group: saline 50 ul; B. 2-Me group: 50 mg/kg, 50 ul; C. 3-F group: 50 mg/kg, 50 ul; D: 2-Me group: 10 mg/kg, 50 ul; E. 3-F group: 10 mg/kg, 50 ul; F. Celebrex group: 50 mg/kg, 50 ul. Establishing measurements of the carrageenan-induced acute inflammation/edema. […]

The target of assay [2] is T1, COX-2-10aa-mPGES-1 (Homo sapiens, UniProt O14684+P35354).
T1 construct: made in house
T1 sequence (P35354+O14684 with tags, fused parts or gaps): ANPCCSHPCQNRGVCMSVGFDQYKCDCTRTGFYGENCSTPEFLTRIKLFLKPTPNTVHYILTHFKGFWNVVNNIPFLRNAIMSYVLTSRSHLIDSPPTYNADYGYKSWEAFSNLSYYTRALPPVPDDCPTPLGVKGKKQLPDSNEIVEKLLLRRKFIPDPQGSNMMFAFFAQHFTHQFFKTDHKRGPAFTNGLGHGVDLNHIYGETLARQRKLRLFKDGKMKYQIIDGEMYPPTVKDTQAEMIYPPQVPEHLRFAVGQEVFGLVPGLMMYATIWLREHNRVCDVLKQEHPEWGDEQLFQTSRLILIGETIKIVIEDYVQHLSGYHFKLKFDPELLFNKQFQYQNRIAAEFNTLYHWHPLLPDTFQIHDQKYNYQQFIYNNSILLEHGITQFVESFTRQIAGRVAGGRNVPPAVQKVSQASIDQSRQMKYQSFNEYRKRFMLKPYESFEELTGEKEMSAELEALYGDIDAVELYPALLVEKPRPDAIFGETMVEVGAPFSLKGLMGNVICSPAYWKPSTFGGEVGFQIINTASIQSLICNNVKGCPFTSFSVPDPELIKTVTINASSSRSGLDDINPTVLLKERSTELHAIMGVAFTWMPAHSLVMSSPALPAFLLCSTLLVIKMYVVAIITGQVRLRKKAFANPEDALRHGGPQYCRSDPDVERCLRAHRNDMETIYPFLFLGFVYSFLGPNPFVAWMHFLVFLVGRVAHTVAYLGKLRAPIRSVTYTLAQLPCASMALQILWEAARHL
Kind of assay: Enzymelink COX-2-10aa-mPGES-1 high through-put screening. Format: biochemical. As to conditions: cross-filtered between mPGES-1, PGIS and COX-2 with AA as substrate. The source says:
There is an urgent need for new anti-inflammatory drugs with less the adverse effects in clinical practice. Developing drugs which inhibit mPGES-1 without affecting other COX downstream synthases to only decrease PGE2 level at inflammation site is an ideal therapeutic strategy to treat inflammatory diseases. By successfully establishing a system of single-chain Enzymelinks of the upstream COX-2 and the downstream mPGES-1 thread by a 10 amino acid (AA) bio-linker (COX-2-10aa-mPGES-1 [9,11]), one can mimic endogenous inflammatory PGE2 biosynthesis without affecting COX-2 coupling to other enzyme synthases, for example, PGIS. This kind of Enzymelink has a kinetic advantage for converting the initial substrate, AA, to pro-inflammatory PGE2 via a triple catalytic reaction due to the shorter distance between the catalytic domain of the two enzymes within a single polypeptide chain. By this method, it was possible to reduce the interference with the mPGES-1 inhibitor screen, such as the nonspecific inhibition and cross-inhibition of PGIS, by avoiding the use of the unstable intermediate PGH2 as the initial substrate for PGE2 biosynthesis. At the same time, another Enzymelink, COX-2-10aa-PGIS was established in order to verify that the screen compound will not affect PGI2 synthesis. […]

Assay [3] relates to carrageenan-induced paw inflammation. The experiment in a line: Carrageenan-induced paw inflammation/edema in BABL-c mice. Format: in vivo. As to conditions: for inflammatory edema (paw volume quantitation): 50 mg/kg intramuscular 10 min before carrageenan, vs saline control; for inflammatory edema (paw volume quantitation) / time course of paw volume: 50 mg/kg; for paw thickness: 50 mg/kg intramuscular, vs control group; for time course of paw volume: 0-6 h after carrageenan. As for the experimental part:
as §1
A general note: In the carrageenan paw model, swelling and tenderness develop within hours.

For `Nc1ccc2oc(-c3ccc(C(F)(F)F)cc3)nc2c1` [3-F], in assay [1], the “dose-dependent anti-inflammatory activity, paw thickness” value is “improve the anti-inflammatory effects”; the “dose-dependent anti-inflammatory activity, paw edema volume” value was “increasing potent anti-inflammatory effect corresponding with the dosage increase”; the paw thickness increase entry is “significantly decrease”; the paw volume increase entry is recorded as “significantly decrease; also recorded: significant effects on reducing the paw edema”. Besides, the “selectivity for mPGES-1” value in assay [2] is reported as “highly selective for mPGES-1”. For the same compound, in assay [3], the “inflammatory edema (paw volume quantitation)” value is listed as “significantly decreased the inflammatory edema; also recorded: significant effects on reducing the paw edema”, the paw thickness result is recorded as “significant anti-inflammatory potency” and the “time course of paw volume” value was “increased during the first 2 hours but decreased within the next 4 hours”.
In the case of `CC(C)c1ccc(-c2nc3cc(N)ccc3o2)cc1` [2-Me], in assay [1], the “dose-dependent anti-inflammatory activity, paw thickness” value is “improve the anti-inflammatory effects”; the “dose-dependent anti-inflammatory activity, paw edema volume” value is listed as “improved its anti-inflammation activity”; the paw thickness increase result was “significantly decrease”; the paw volume increase result is “significantly decrease; also recorded: significant effects on reducing the paw edema”. Further, in assay [2], the “selectivity for mPGES-1” value is listed as “highly selective for mPGES-1”. For the same compound, in assay [3], the “inflammatory edema (paw volume quantitation)” value is recorded as “significantly decreased the inflammatory edema; also recorded: significant effects on reducing the paw edema”; the paw thickness result was “significant anti-inflammatory potency”; the “time course of paw volume” value was “increased slightly in the first 4 hours and decreases in the following 2 hours”.
